The record followed here is patent US5456923A, “Method of manufacturing solid dispersion” (priority 1991, dated 1995).

In brackets after ≈: the same amount, converted by molar mass. Structures can show the parent of a compound that is named as a salt.

The data set in a line: physchem. Particulars: jp test solution 2.

One may read the solubility as how much of the substance goes into solution per volume.

Method: Test method: Saturation dissolution method
Test conditions: Constanttemperature bath (25° C.)
Ultracentrifugation: 40000 rpm × 1 hr; the supernatant analyzed by

`COC(=O)C1=C(C)NC(C)=C(P2(=O)OCCCO2)C1c1ccccc1[N+](=O)[O-]` (centres unmarked) [Compound A, methyl 2,6-dimethyl-4-(2-nitrophenyl)-5-(2-oxo-1,3,2-dioxaphosphorinan-2-yl)-1,4-dihydropyridine-3-carboxylate] yielded a solubility at 24 h of 36.5 µg/mL (≈ 89.4 µM).
As for `COC(=O)C1=C(C)NC(C)=C(C(=O)OCCN(C)Cc2ccccc2)C1c1cccc([N+](=O)[O-])c1` (centres unmarked) [nicardipine hydrochloride], the solubility at 24 h stood at 8.5 µg/mL.
